pIC50: −log10 of the molar value. Like-named read-outs stand apart in the source and are kept apart here.
Columns and labels:
[1] = target: T1, GST fusion human ERK2 protein (Homo sapiens, UniProt P28482); test: ERK2 enzyme assay (2); type: biochemical; settings: read-out: ERK2 enzyme inhibitory activity (2)
T1 construct: purchased Carna Biosciences, Inc; host or cells: E. coli expression system
Procedure, shortened: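 IC50 values come from mobility-shift measurement of phosphorylated versus unphosphorylated 5-FAM peptide substrate after EDTA quench. Beforehand, compound and 1.25 nmol/L E. coli-expressed GST–human ERK2 stood 15 min at room temperature (pH 7.5), then 1 mmol/L ATP and 4.25 μmol/L substrate (final) were added for 120 min at 25 °C.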

human PI3Kα protein = target: T2, human PI3Kα protein (Homo sapiens, UniProt P42336); test: PI3Kα enzyme assay (ADP-Glo); type: biochemical; settings: read-out: PI3Kα enzyme inhibitory activity
T2 construct: purchased Carna Biosciences, Inc; host or cells: baculovirus expression system
T2 sequence (P42336 whole entry): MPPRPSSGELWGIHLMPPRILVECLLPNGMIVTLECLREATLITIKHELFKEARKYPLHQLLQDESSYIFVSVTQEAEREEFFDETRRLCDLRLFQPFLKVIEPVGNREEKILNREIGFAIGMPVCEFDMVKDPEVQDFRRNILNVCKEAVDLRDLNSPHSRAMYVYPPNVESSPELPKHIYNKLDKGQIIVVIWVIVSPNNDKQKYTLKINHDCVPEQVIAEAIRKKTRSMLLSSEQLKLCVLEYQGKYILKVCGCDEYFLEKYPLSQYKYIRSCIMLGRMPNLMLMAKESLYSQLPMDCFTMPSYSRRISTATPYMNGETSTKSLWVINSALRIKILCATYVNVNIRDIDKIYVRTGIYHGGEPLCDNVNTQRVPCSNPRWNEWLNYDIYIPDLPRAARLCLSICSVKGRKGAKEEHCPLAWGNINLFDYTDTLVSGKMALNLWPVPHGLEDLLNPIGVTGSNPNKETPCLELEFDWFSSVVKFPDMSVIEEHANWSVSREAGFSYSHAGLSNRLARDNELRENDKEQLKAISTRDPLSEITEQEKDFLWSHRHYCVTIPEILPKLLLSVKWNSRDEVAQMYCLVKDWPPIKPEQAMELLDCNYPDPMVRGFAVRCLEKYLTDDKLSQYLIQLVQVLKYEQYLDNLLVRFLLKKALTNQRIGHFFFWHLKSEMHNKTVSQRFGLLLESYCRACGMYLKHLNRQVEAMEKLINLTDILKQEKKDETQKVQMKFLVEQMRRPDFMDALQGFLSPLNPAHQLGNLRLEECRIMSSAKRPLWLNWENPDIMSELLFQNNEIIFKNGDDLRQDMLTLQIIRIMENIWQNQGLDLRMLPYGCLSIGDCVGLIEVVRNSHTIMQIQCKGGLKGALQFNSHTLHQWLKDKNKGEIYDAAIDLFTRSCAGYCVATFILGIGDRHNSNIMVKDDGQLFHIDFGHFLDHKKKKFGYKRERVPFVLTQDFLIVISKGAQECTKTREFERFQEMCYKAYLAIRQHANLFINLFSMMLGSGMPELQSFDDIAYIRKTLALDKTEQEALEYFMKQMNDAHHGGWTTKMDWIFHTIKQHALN
T2 sequence (P27986 whole entry partner): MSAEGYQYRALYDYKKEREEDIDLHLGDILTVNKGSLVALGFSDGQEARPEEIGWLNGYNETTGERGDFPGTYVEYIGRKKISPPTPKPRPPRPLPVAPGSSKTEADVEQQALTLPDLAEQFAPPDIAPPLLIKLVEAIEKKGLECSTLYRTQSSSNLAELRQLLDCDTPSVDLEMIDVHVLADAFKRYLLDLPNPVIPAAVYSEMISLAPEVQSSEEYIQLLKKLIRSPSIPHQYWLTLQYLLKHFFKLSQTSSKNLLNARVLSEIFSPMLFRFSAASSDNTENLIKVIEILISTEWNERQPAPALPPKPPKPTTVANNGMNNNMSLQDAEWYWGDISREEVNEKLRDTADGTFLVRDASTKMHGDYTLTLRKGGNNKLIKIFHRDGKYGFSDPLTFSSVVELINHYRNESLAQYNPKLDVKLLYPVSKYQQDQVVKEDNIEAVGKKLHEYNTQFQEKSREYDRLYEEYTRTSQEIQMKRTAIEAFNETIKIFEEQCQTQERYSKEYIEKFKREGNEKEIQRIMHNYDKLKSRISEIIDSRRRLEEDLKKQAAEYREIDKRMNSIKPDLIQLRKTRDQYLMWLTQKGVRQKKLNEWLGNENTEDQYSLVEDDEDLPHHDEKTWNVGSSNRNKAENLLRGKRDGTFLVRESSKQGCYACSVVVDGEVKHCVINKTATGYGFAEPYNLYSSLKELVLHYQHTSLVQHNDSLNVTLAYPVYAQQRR
Procedure, shortened: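 Biotinylated human PI3Kα (baculovirus-expressed, 4.5 nmol/L) pre-incubated 15 min with compound in Tris-HCl pH 7.5, MgCl2, BSA; reaction 60 min at 25° C with 50 μmol/L PIP2 and 100 μmol/L ATP final. ADP quantified by ADP-Glo luminescence; IC50 calculated.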

CHO-K1 cells = test: CHO cell toxicity test; type: cell-based, Chinese hamster; settings: Cricetulus griseus; CHO-K1 cells, 24 hours culture with compound, CellTiter-Glo; read-out: IC50 value (concentration at which the number of viable cells was suppressed to 50% or less)
Procedure, shortened: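 CHO-K1 cells were cultured 24 h, then exposed 24 h to compound at final 25.00 to 0.20 μmol/L in F-12 with 2% FCS. Viability read by CellTiter-Glo luminescence; inhibition % = 100 − (treated/untreated signal)×100.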

[2] = target: T1, GST fusion human ERK2 protein; test: ERK2 enzyme assay (1); type: biochemical; settings: read-out: ERK2 enzyme inhibitory activity (1)
Procedure, shortened: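 IC50 derived from the proportion of phosphorylated 5-FAM peptide, separated from unphosphorylated peptide by microfluidic mobility shift. Compound was first preincubated 15 min at room temperature with 2.5 nmol/L kinase at pH 7.5, then 43.1 μmol/L ATP plus 4.25 μmol/L substrate reacted 120 min at 25 °C.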

[3] = 4.5 nmol/L PI3Kα, PIP2 50 μmol/L, ATP 100 μmol/L
[4] = 2.5 nmol/L ERK2, ATP 43.1 μmol/L

T1 sequence (P28482 whole entry, the tested form may be a part): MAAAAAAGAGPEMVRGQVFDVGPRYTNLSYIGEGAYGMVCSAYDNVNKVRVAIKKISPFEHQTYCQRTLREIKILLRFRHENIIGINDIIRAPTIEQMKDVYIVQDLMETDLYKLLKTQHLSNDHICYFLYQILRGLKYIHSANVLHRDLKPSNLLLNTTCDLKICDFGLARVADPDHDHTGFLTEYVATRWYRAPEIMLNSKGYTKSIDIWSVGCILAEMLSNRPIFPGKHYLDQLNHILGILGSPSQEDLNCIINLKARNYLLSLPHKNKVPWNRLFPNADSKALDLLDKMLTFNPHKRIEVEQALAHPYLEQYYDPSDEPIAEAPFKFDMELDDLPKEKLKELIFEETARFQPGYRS

## CCCc1nn(C)cc1-c1cnc2ccc(Nc3nnc(C(C)C)s3)nc2c1 [Example 0122]
[1]; 1.25 nmol/L ERK2, ATP 1 mmol/L
  pIC50: > 6.00
Human PI3Kα protein; [3]
  pIC50: > 6.00
CHO-K1 cells
  pIC50: ≤ 4.60
[2]; [4]
  pIC50: > 6.00

## CN(C)c1cnnc(Nc2ccc3ncc(-c4cnn(CCCN5CCCC5)c4)cc3n2)c1 [Example 0403, N^5,N^5-dimethyl-N^3-(7-(1-(3-(pyrrolidin-1-yl)propyl)-1H-pyrazol-4-yl)-1,5-naphthyridin-2-yl)pyridazine-3,5-diamine]
[1]; ERK2 enzyme assay (2)
  pIC50: > 6.00
Human PI3Kα protein
  pIC50: > 6.00
CHO-K1 cells
  pIC50: ≤ 4.60
[2]; ERK2 enzyme assay (1)
  pIC50: > 6.00

## Cc1nnc(Nc2ccc3ncc(-c4cnn(C)c4)cc3n2)s1 [Example 0027]
[1]; 1.25 nmol/L ERK2, ATP 1 mmol/L
  pIC50: > 6.00
Human PI3Kα protein; [3]
  pIC50: > 6.00
CHO-K1 cells
  pIC50: ≤ 4.60
[2]; [4]
  pIC50: > 6.00

## FC1(F)CCN(CCCn2cc(-c3cnc4ccc(Nc5nnc(C6CCCC6)s5)nc4c3)cn2)C1 [Example 0352]
[1]; ERK2 enzyme assay (2)
  pIC50: > 6.00
Human PI3Kα protein
  pIC50: > 6.00
CHO-K1 cells
  pIC50: ≤ 4.60
[2]; ERK2 enzyme assay (1)
  pIC50: > 6.00

## COCc1cnnc(Nc2ccc3ncc(-c4cnn(CCCN5CCCC5)c4)cc3n2)c1 [Example 0018]
[1]; 1.25 nmol/L ERK2, ATP 1 mmol/L
  pIC50: > 6.00
Human PI3Kα protein; [3]
  pIC50: > 6.00
CHO-K1 cells
  pIC50: ≤ 4.60
[2]; [4]
  pIC50: > 6.00

## CC(C)c1cnnc(Nc2ccc3ncc(-c4cnn(CCC(C)(C)O)c4)cc3n2)c1 [Example 0474]
[1]; ERK2 enzyme assay (2)
  pIC50: > 6.00
Human PI3Kα protein
  pIC50: > 6.00
CHO-K1 cells
  pIC50: ≤ 4.60
[2]; ERK2 enzyme assay (1)
  pIC50: > 6.00

## Cc1c(-c2cnc3ccc(Nc4nnc(C5CCCC5)s4)nc3c2)cnn1C [Example 0348]
[1]; ERK2 enzyme assay (2)
  pIC50: > 6.00
Human PI3Kα protein
  pIC50: 5.00 to 6.00
CHO-K1 cells
  pIC50: ≤ 4.60
[2]; ERK2 enzyme assay (1)
  pIC50: > 6.00
